These results are taken from US10919941B2, “Functional lipid constructs” (KODE BIOTECH LIMITED, priority 2007, dated 2021).

Experiment [1] relates to Miltenberger Antibody Positive Panel. Description: Reactivity of modified RBCs against the Miltenberger Antibody Positive Panel. It counts as cell-based, human. Also on record: key to score vs panel 15 TAP2 / score vs panel 4 T7202 / score vs panel 8 T5896 / score vs panel 2 T217 / score vs panel 3 T165 / score vs panel 14 TAP1 / score vs panel 10 Mia / score vs panel 11 Mur / score vs panel 12 Gam / score vs panel 6 T6025 / score vs panel 7 T8445 / score vs panel 9 MIII / score vs panel 13 BoxH / reactivity with Panel Serum #7 (T8445) / agglutination score, Panel Serum #7 (T8445): 0 or ‘−’ no agglutination; 0 or ‘−’ no agglutination; 1+ or 3=very weak agglutination; 1+ or 3=very weak agglutination; 2+ or 5=weak agglutination; 2+ or 5=weak agglutination; 3+ or 8=moderate strong agglutination; 3+ or 8=moderate strong agglutination; 4+ or 10/12=strong agglutination; 4+ or 10/12=strong agglutination; 4+ or 10/12=strong agglutination. Particulars: for agglutination score, Panel Serum #7 (T8445): cells modified at 50 μg/ml, 2 hour 37° C., BioVue AHG cards; for reactivity with Panel Serum #7 (T8445): construct 50 μg/ml (2 hours, 37° C.). On the procedure:
Red blood cells are modified by mixing 1 part by volume of washed packed red blood cells with 1 part by volume of peptide-lipid construct dispersed at a concentration of 10 to 1000 pg/ml in cell media (Celpresol™).
The suspensions are either: • 1. incubated for 2 hours at 37° C. before being washed and suspended in a cell medium for serological analysis at a concentration of 0.8 to 3% (Method 1); or • 2. incubated for 3 to 4 hours at room temperature (circa 25° C.) followed by 18 hours at 4° C. before being washed and suspended in a cell medium for serological analysis at a concentration of 0.8 to 3% (Method 2).
Serological reactions are graded or scored by either of two established systems (0 or ‘−’ no agglutination, 1+ or 3=very weak agglutination, 2+ or 5=weak agglutination, 3+ or 8=moderate strong agglutination, 4+ or 10/12=strong agglutination)
Serological platforms used are Tube (addition of reagents and reactants into plastic or glass serology tubes and after appropriate incubations, washing and centrifugation observing reactions macroscopically by eye and a 10× magnification eyepiece and scoring) and BioVue™ (addition of reactants into cassettes containing beads (including some reactants) and after appropriate incubations and centrifugation observing the reaction patterns trapped within the Gel matrix). BioVue is the serological column agglutination platform of Ortho-Clinical Diagnostics. Diamed is the serological column agglutination platform of Diamed AG.

A further experiment deals with antibody negative serums. Description: False positive reactions of modified RBCs with antibody negative serums/plasma. Also on record: key to Reaction score BioVue AHG, PAC samples 1-46, 49, 50, 52, 53 / Reaction score BioVue AHG, PAC sample 47 / Reaction score BioVue AHG, PAC sample 48 / Reaction score BioVue AHG, PAC sample 51 / agglutination score, T series serum 2 / agglutination score, T series serum 42 / agglutination score, T series serum 63 / agglutination score, T series serum 62 / agglutination score, T series serum 7 / agglutination score, T series serum 20 / agglutination score, T series serum 48 / agglutination score, T series serum 22 / agglutination score, T series serum 39 / agglutination score, T series serum 23 / agglutination score, T series serum 30 / agglutination score, T series serum 4 / agglutination score, T series serum 31 / agglutination score, T series serum 44 / agglutination score, T series serum 61 / agglutination score, T series serum 18 / agglutination score, T series serum 21 / agglutination score, T series serum 28 / agglutination score, T series serum 55 / agglutination score, false positive serum T18 / agglutination score, false positive serum T21 / agglutination score, false positive serum T28 / agglutination score, false positive serum T55 / agglutination score, false positive serum T78 / agglutination score, false positive serum T92: 0 or ‘−’ no agglutination; 0 or ‘−’ no agglutination; 1+ or 3=very weak agglutination; 1+ or 3=very weak agglutination; 2+ or 5=weak agglutination; 2+ or 5=weak agglutination; 3+ or 8=moderate strong agglutination; 3+ or 8=moderate strong agglutination; 4+ or 10/12=strong agglutination; 4+ or 10/12=strong agglutination; 4+ or 10/12=strong agglutination. The format is cell-based, human. Particulars: BioVue AHG cards.

Where [2] appears, read: larger series = 102, cells modified at 50 μg/ml, 2 hour 37° C.
The mark [3] stands for this setting: cells modified at 50 μg/ml, 2 hour 37° C.

No end group written: not given here.

With “M27: DOPE peptide-lipid construct: Mur peptide TYPAHTAN, leader c, spacer CMG(2) (TYPAHTANC; also: DOPE peptide-lipid construct via leader Cys, spacer CMG(2))”, in experiment [1] (Table 9, construct 50 μg/ml), the “score vs panel 2 T217” value was determined as 0, the “score vs panel 4 T7202” value is listed as 10, the “score vs panel 7 T8445” value came out at 0 and the “score vs panel 8 T5896” value came to 0. Further, in experiment [1] (Table 9, construct 50 μg/ml), the “score vs panel 15 TAP2” value stood at 0.
As to “M14: DOPE peptide-lipid construct: Mur peptide DTYPAHTANEVSE, leader c, spacer CMG(2) (DTYPAHTANEVSEC; also: DOPE peptide-lipid construct via leader Cys, spacer CMG(2))”, in experiment [1] (Table 9, construct 10 μg/ml), the “score vs panel 2 T217” value stood at 0, the “score vs panel 3 T165” value came to 10, the “score vs panel 4 T7202” value is given as 0 and the “score vs panel 6 T6025” value came out at 8. Further, in experiment [1] (Table 9, construct 10 μg/ml), the “score vs panel 7 T8445” value is reported as 5, the “score vs panel 8 T5896” value is 0, the “score vs panel 9 MIII” value is listed as 0 and the “score vs panel 10 Mia” value came out at 0. Besides, in experiment [1] (Table 9, construct 10 μg/ml), the “score vs panel 11 Mur” value was 0 and the “score vs panel 13 BoxH” value is reported as 0. In addition, in experiment [1] (Table 9, construct 50 μg/ml), the “score vs panel 2 T217” value came out at 0, the “score vs panel 3 T165” value is 10, the “score vs panel 4 T7202” value turned out to be 3 and the “score vs panel 6 T6025” value is given as 5. For the same substance, in experiment [1] (Table 9, construct 50 μg/ml), the “score vs panel 7 T8445” value is 8, the “score vs panel 8 T5896” value was 0, the “score vs panel 9 MIII” value is given as 0 and the “score vs panel 10 Mia” value is reported as 0. Besides, in experiment [1] (Table 9, construct 50 μg/ml), the “score vs panel 11 Mur” value turned out to be 0. In addition, in experiment [1] (Table 9, construct 100 μg/ml), the “score vs panel 2 T217” value amounted to 3, the “score vs panel 3 T165” value amounted to 10, the “score vs panel 4 T7202” value is given as 5 and the “score vs panel 6 T6025” value amounted to 10. Moreover, in experiment [1] (Table 9, construct 100 μg/ml), the “score vs panel 7 T8445” value was 5, the “score vs panel 8 T5896” value is listed as 0, the “score vs panel 9 MIII” value was determined as 0 and the “score vs panel 10 Mia” value was 0. Besides, in experiment [1] (Table 9, construct 100 μg/ml), the “score vs panel 11 Mur” value is 0 and the “score vs panel 13 BoxH” value was determined as 0.
In the case of “M29: DOPE peptide-lipid construct: Mur peptide PAHTANEVS, leader c, spacer CMG(2) (PAHTANEVSC; also: DOPE peptide-lipid construct via leader Cys, spacer CMG(2))”, in experiment [1] (Table 9, construct 50 μg/ml), the “score vs panel 2 T217” value worked out at 0, the “score vs panel 4 T7202” value was determined as 10, the “score vs panel 8 T5896” value amounted to 0 and the “score vs panel 15 TAP2” value was determined as 8. Further, in experiment [1], the “agglutination score, Panel Serum #7 (T8445)” value was determined as 8 and the “reactivity with Panel Serum #7 (T8445)” value came out at 8. Moreover, in the experiment with antibody negative serums (setting [2]), the “agglutination score, false positive serum T28” value is reported as 5 and the “agglutination score, false positive serum T92” value was 8.
Consider “M30: DOPE peptide-lipid construct: Mur peptide DTYPAHTANE, leader c, spacer CMG(2) (DTYPAHTANEC; also: DOPE peptide-lipid construct via leader Cys, spacer CMG(2))”, for which, in experiment [1] (Table 9, construct 50 μg/ml), the “score vs panel 2 T217” value is 0, the “score vs panel 4 T7202” value turned out to be 10, the “score vs panel 7 T8445” value is reported as 8 and the “score vs panel 8 T5896” value came out at 0. Besides, in experiment [1] (Table 9, construct 50 μg/ml), the “score vs panel 15 TAP2” value is given as 8. In addition, in experiment [1], the “agglutination score, Panel Serum #7 (T8445)” value is 8 and the “reactivity with Panel Serum #7 (T8445)” value is 8. Besides, the “% positive” value with antibody negative serums (T series reactives (n = 58)) stood at 9%. Besides, in the experiment on antibody negative serums (setting [3]), the “agglutination score, T series serum 2” value worked out at 10; the “agglutination score, T series serum 4” value worked out at 8; the “agglutination score, T series serum 7” value is given as 0; the “agglutination score, T series serum 18” value is reported as 0. Also, in the experiment on antibody negative serums (setting [3]), the “agglutination score, T series serum 20” value is reported as 0; the “agglutination score, T series serum 21” value is 0; the “agglutination score, T series serum 22” value is listed as 0; the “agglutination score, T series serum 23” value is listed as 0. Besides, in the experiment with antibody negative serums (setting [3]), the “agglutination score, T series serum 28” value was found to be 0; the “agglutination score, T series serum 30” value was 0; the “agglutination score, T series serum 31” value is 8; the “agglutination score, T series serum 39” value is 0. Further, in the experiment on antibody negative serums (setting [3]), the “agglutination score, T series serum 42” value is listed as 0; the “agglutination score, T series serum 44” value amounted to 10; the “agglutination score, T series serum 48” value was found to be 0; the “agglutination score, T series serum 55” value is given as 0. In addition, in the experiment on antibody negative serums (setting [3]), the “agglutination score, T series serum 61” value came to 10; the “agglutination score, T series serum 62” value amounted to 0; the “agglutination score, T series serum 63” value was 0.
Turning to “M18: DOPE peptide-lipid construct: Mur peptide PAHTANEV, leader c, spacer CMG(2) (PAHTANEVC; also: DOPE peptide-lipid construct via leader Cys, spacer CMG(2))”, in experiment [1] (Table 9, construct 100 μg/ml), the “score vs panel 2 T217” value is listed as 0, the “score vs panel 3 T165” value came out at 10, the “score vs panel 4 T7202” value is listed as 0 and the “score vs panel 6 T6025” value was 10. Also, in experiment [1] (Table 9, construct 100 μg/ml), the “score vs panel 7 T8445” value came out at 8, the “score vs panel 8 T5896” value amounted to 0, the “score vs panel 9 MIII” value was found to be 0 and the “score vs panel 10 Mia” value was 0. For the same substance, in experiment [1] (Table 9, construct 100 μg/ml), the “score vs panel 11 Mur” value amounted to 0 and the “score vs panel 12 Gam” value is reported as 0.
Take “M21: DOPE peptide-lipid construct: MUTK peptide SQTNDKHKRD, leader c, spacer CMG(2) (SQTNDKHKRDC; also: DOPE peptide-lipid construct via leader Cys, spacer CMG(2))”: in experiment [1] (Table 8, construct 200 μg/ml), the “score vs panel 2 T217” value is 0, the “score vs panel 3 T165” value was 8, the “score vs panel 4 T7202” value came to 0 and the “score vs panel 6 T6025” value is listed as 8. In experiment [1] (Table 8, construct 200 μg/ml), the “score vs panel 7 T8445” value is listed as 0, the “score vs panel 8 T5896” value is listed as 0, the “score vs panel 9 MIII” value is on record as 0 and the “score vs panel 10 Mia” value is 0. For the same substance, in experiment [1] (Table 8, construct 200 μg/ml), the “score vs panel 11 Mur” value is reported as 0, the “score vs panel 12 Gam” value is recorded as 3 and the “score vs panel 15 TAP2” value was 5.
As for “M16: DOPE peptide-lipid construct: Mur peptide TYPAHTANEV, leader c, spacer PEG (TYPAHTANEVC; also: DOPE peptide-lipid construct via leader Cys, spacer PEG)”, in experiment [1] (Table 9, construct 100 μg/ml), the “score vs panel 2 T217” value is 0, the “score vs panel 3 T165” value was 10, the “score vs panel 4 T7202” value amounted to 5 and the “score vs panel 6 T6025” value was found to be 5. Moreover, in experiment [1] (Table 9, construct 100 μg/ml), the “score vs panel 7 T8445” value came out at 12, the “score vs panel 8 T5896” value is given as 0, the “score vs panel 9 MIII” value came out at 0 and the “score vs panel 10 Mia” value worked out at 0. Also, in experiment [1] (Table 9, construct 100 μg/ml), the “score vs panel 11 Mur” value was found to be 0, the “score vs panel 12 Gam” value is 0 and the “score vs panel 13 BoxH” value is 0.
